Data from article PMC8010095, “Discovery of novel antituberculosis agents among 3-phenyl-5-(1-phenyl-1H-[1,2,3]triazol-4-yl)-[1,2,4]oxadiazole derivatives targeting aminoacyl-tRNA synthetases” (Scientific Reports, 2021).
≈ marks a conversion by molar mass, not a printed value. Entries after “also recorded” stand apart in the source; their conditions may differ. Where two headings read alike, the source gives them in different places.

What was measured:
[1] = test system: M. tuberculosis H37Rv; assay: microbe, parasite or virus in culture; type: cell-based; conditions: > 80% reduction in growth, screened at 20, 2 and 0.2 mg/L, 7H9 complete medium; for MIC: Mycobacterium tuberculosis, H37RV, read-out: Growth inhibition cutoff, H37Rv
[2] = molecular target: T1, M. tuberculosis methionyl-tRNA synthetase (MetRS) (Mycobacterium tuberculosis, UniProt P9WFU5); assay: biochemical; type: biochemical; conditions: for IC50: mean ± s.d. (n = 3)
T1 construct: made in house; host or cells: Escherichia coli

[3] = test system: Mycobacterium abscessus (ATCC 19,977); assay: microbe, parasite or virus in culture; type: cell-based; conditions: > 80% reduction in growth, screened at 20, 2 and 0.2 mg/L, 7H9 complete medium; for MIC: Mycobacteroides abscessus, ATCC19, read-out: Growth inhibition cutoff, M. abscessus 19,977
[4] = molecular target: T2, M. tuberculosis leucyl-tRNA synthetase (LeuRS) (Mycobacterium tuberculosis, UniProt P9WFV1); assay: biochemical; type: biochemical
T2 construct: made in house; host or cells: Escherichia coli

[5] = test system: Mycobacterium avium (ATCC 700,891 MAC 101); assay: microbe, parasite or virus in culture; type: cell-based; conditions: > 80% reduction in growth, screened at 20, 2 and 0.2 mg/L, 7H9 complete medium; for MIC: Mycobacterium avium, ATCC700, read-out: Growth inhibition cutoff, M. avium 700,891 (MAC 101)
[6] = test system: M. tuberculosis; parameters: method as in PMID 31691918; conditions: earlier identified hit; cited from earlier work
[7] = molecular target: T2, M. tuberculosis leucyl-tRNA synthetase (LeuRS); parameters: method as in PMID 31691918; conditions: from the previous article ref 22; cited from earlier work
[8] = molecular target: T1, M. tuberculosis methionyl-tRNA synthetase (MetRS); parameters: method as in PMID 31691918; conditions: from the previous article ref 22; cited from earlier work
[9] = test system: M. tuberculosis H37Rv; assay: microbe, parasite or virus in culture; type: cell-based, Mycobacterium tuberculosis; conditions: read-out: 2-week MIC
[10] = test system: HEK293 (human embryonic kidney 293); assay: MTT cytotoxicity assay, HEK293; type: cell-based; conditions: 3.125 µM to 50 µM
Experimental: (§1) We have tested compound 27 for cytotoxicity toward human cell lines HEK293 (human embryonic kidney 293) and HepG2 (human hepatocellular carcinoma cell line) using standard MTT assay.
(§2) Compound cytotoxicity was determined by standard MTT assay[37] using human embryonic kidney 293 (HEK293) and human hepatocellular carcinoma (HepG2) cell lines according to the method described previously. HEK 293 cell line was obtained from the Russian Cell Culture Collection (Institute of Cytology of the Russian Academy of Science, St.Petersburg, Russia) and HepG2 – from the Bank of Cell Lines from human and animal tissue (R. E. Kavetsky Institute of Experimental Pathology, Oncology and Radiobiology, NAS of Ukraine, Kyiv, Ukraine).

[11] = MTT cytotoxicity assay, HEK293; type: cell-based, human; conditions: human, hek293 cells, read-out: CC50, concentration to cause 50% cytotoxicity
Experimental: as §1, §2

[12] = test system: HepG2 (human hepatocellular carcinoma cell line); assay: MTT cytotoxicity assay, HepG2; type: cell-based; conditions: 3.125 µM to 50 µM
Experimental: as §1, §2

[13] = MTT cytotoxicity assay, HepG2; type: cell-based, human; conditions: human, hepg2 cells, read-out: CC50, concentration to cause 50% cytotoxicity
Experimental: as §1, §2

[14] = test system: human mitochondrial LeuRS; parameters: method as in PMID 28953378; conditions: cited from earlier work
[15] = test system: mycobacterial LeuRS; parameters: method as in PMID 28953378; conditions: cited from earlier work
[16] = test system: tuberculosis; parameters: method as in PMID 28953378; conditions: cited from earlier work
[17] = test system: human cytoplasmic LeuRS; parameters: method as in PMID 28953378; conditions: cited from earlier work
[18] = test system: Staphylococcus aureus MetRS; parameters: method as in PMID 19015366; conditions: S. aureus MetRS versus human mitochondrial MetRS; cited from earlier work
[19] = recombinant enzyme, mean ± spread (n in brackets), negative = activation

T1 sequence (P9WFU5 whole entry): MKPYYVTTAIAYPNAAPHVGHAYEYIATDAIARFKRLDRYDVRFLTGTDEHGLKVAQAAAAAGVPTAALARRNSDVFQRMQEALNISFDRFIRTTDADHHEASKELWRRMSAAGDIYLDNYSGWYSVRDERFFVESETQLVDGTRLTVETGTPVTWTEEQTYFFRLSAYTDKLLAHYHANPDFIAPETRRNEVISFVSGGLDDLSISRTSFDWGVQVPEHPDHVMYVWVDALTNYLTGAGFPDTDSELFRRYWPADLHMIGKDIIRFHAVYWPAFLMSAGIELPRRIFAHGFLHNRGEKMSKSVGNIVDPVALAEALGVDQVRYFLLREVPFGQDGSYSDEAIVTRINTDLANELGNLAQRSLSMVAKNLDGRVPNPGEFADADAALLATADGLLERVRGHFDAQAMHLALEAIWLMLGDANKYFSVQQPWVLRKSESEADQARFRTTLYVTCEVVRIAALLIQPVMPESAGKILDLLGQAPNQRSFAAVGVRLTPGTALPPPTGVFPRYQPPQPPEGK
T2 sequence (P9WFV1 whole entry): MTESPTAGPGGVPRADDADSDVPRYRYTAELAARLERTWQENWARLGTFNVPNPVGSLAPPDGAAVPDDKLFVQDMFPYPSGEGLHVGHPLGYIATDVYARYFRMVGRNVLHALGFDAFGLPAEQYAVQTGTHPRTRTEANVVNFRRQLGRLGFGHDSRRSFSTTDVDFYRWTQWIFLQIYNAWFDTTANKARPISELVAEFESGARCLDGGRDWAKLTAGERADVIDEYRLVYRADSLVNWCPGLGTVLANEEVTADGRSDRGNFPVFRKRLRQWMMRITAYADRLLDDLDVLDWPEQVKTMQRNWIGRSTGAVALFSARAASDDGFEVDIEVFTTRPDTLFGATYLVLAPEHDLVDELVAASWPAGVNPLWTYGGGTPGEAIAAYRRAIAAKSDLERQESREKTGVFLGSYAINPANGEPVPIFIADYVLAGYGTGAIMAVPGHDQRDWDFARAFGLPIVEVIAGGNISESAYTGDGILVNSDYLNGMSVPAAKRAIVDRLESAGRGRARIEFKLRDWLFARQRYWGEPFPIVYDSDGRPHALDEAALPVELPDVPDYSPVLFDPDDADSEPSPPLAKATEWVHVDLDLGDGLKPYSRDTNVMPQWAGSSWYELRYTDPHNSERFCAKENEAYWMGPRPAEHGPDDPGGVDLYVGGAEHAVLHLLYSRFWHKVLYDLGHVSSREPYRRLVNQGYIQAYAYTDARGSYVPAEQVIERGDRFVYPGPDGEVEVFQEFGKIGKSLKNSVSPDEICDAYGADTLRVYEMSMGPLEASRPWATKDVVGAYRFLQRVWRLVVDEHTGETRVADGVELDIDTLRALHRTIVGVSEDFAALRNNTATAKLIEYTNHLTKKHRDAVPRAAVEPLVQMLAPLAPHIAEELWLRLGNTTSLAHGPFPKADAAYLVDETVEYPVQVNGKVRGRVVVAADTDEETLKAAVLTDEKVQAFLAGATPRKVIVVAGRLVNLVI

SMILES	Growth inhibition cutoff, H37Rv [1]	MetRS inhibition activity, % [2, 19]	Growth inhibition cutoff, M. abscessus 19,977 [3]	LeuRS inhibition activity, % [4, 19]	Growth inhibition cutoff, M. avium 700,891 (MAC 101) [5]	also measured
Nc1c(-c2nc(-c3ccc(F)cc3)no2)nnn1-c1ccc(F)cc1 [Compound 12]	> 20 mg/L	52 ± 6 (2) %	> 20 mg/L	3 ± 7 (2) %	> 20 mg/L	–
COc1ccc(-n2nnc(-c3nc(-c4ccc(F)cc4)no3)c2N)cc1 [Compound 13]	–	–	–	–	–	MIC [1]: > 20 µg/mL; MetRS inhibition activity, % [2]: 36 ± 5 (2) %; IC50 [2]: 122 ± 26 µM; MIC [3]: > 20 µg/mL; LeuRS inhibition activity, % [4]: 79 ± 7 (2) %; IC50 ([4]; mean ± s.d. (n = 3)): 263.5 ± 0.7 µM; MIC [5]: > 20 µg/mL
CCc1ccc(-n2nnc(-c3nc(-c4ccc(F)cc4)no3)c2N)cc1 [Compound 14]	> 20 mg/L	41 ± 10 (3) %	> 20 mg/L	31 ± 7 (2) %	> 20 mg/L	–
COc1ccc(-n2nnc(-c3nc(-c4ccc(F)cc4)no3)c2N)cc1Cl [Compound 17, 3-(3-chloro-4-methoxy-phenyl)-5-[3-(4-fluoro-phenyl)-[1,2,4]oxadiazol-5-yl]-3H-[1,2,3]triazol-4-ylamine]	> 20 mg/L	77 ± 3 (2) %	> 20 mg/L	51 ± 28 (2) %	> 20 mg/L	antibacterial activity toward M. tuberculosis [6]: does not have antibacterial activity; IC50 [7]: 13 µM; IC50 [8]: 13.8 µM
Cc1cccc(-n2nnc(-c3nc(-c4ccc(F)cc4)no3)c2N)c1 [Compound 18]	> 20 mg/L	26 ± 20 (2) %	> 20 mg/L	13 ± 11 (2) %	> 20 mg/L	–
COc1cccc(-n2nnc(-c3nc(-c4ccc(F)cc4)no3)c2N)c1 [Compound 20]	> 20 mg/L	37 ± 17 (3) %	> 20 mg/L	29 ± 25 (2) %	> 20 mg/L	–
Nc1c(-c2nc(-c3ccc(F)cc3)no2)nnn1-c1ccccc1F [Compound 23]	> 20 mg/L	7 ± 13 (2) %	> 20 mg/L	5 ± 7 (2) %	> 20 mg/L	–
COc1ccc(Cl)cc1-n1nnc(-c2nc(-c3ccc(F)cc3)no2)c1N [Compound 27]	–	–	–	–	–	MIC [1]: > 20 µg/mL; MetRS inhibition activity, % [2]: 57 ± 11 (3) %; IC50 [2]: 148 ± 33.2 µM; MIC [3]: > 20 µg/mL; MIC ([9]; Mycobacterium tuberculosis, H37RV, 336 h): 25 µM (≈ 9.67 µg/mL); MIC [9]: > 50 µM; LeuRS inhibition activity, % [4]: 14 ± 12 (2) %; cytotoxicity / effect on cell viability [10]: did not affect cell viability; also recorded: not cytotoxic; CC50 [11]: > 50 µM; cytotoxicity / effect on cell viability [12]: did not affect cell viability; also recorded: not cytotoxic; CC50 [13]: > 50 µM; MIC [5]: > 20 µg/mL
Nc1c(-c2nc(-c3ccc(Cl)cc3)no2)nnn1-c1ccc(Br)cc1F [Compound 31]	> 20 mg/L	70 ± 19 (2) %	> 20 mg/L	15 ± 11 (2) %	> 20 mg/L	–
CCOc1ccc(-c2noc(-c3nnn(-c4ccccc4Cl)c3N)n2)cc1 [Compound 40]	> 20 mg/L	22 ± 14 (2) %	> 20 mg/L	36 ± 16 (3) %	> 20 mg/L	–
NC[C@H]1OB(O)c2c(OCCO)ccc(Cl)c21 [GSK656, (S)-3-(Aminomethyl)-4-chloro-7-(2-hydroxyethoxy) benzo [c][1, 2] oxaborol-1 (3 H)-ol]	–	–	–	–	–	IC50 [14]: > 300 µM; IC50 [15]: 0.2 µM; efficacy in an animal model of tuberculosis [16]: effective; IC50 [17]: > 300 µM
C=C(F)c1sc(CNCCCNc2cc(O)c3ccccc3n2)c(C)c1Br [REP8839]	–	–	–	–	–	affinity for the bacterial enzyme relative to human mitochondrial MetRS [18]: 1000 fold
